# Experiments:
# Type in all cases: biochemical
# human JAK1 = target: T1, human JAK1 (Homo sapiens, UniProt P23458); test: JAK1 inhibition assay (polyGT substrate / Ulight-JAK1 peptide); settings: recombinant human JAK1 catalytic domain; polyGT or Ulight-JAK1 peptide assay
# T1 construct: catalytic domain, amino acids 866-1154; catalog number PV4774; purchased Invitrogen PV4774
# Procedure, shortened: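 Signal scaled between vehicle and 10 μM staurosporine. Radiometric polyGT reactions ran 45 min at 30 °C, counted after phosphoric-acid stop. Ulight peptide reactions ran 60 min at room temperature, fluorescence read after adding Eu-PT66 detection mix with EDTA.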
# human JAK3 = target: T2, human JAK3 (Homo sapiens, UniProt P52333); test: JAK3 inhibition assay; settings: recombinant human JAK3 catalytic domain; polyGT substrate
# T2 construct: catalytic domain (amino acids 781-1124; catalog number PV3855); purchased Invitrogen PV3855
# Procedure, shortened: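 Radiometric kinase assay: 0.5 ng JAK3 with 2.5 μg polyGT in Tris pH 7.5/MgCl2 buffer, 1 μM ATP plus 0.25 μCi 33P-γ-ATP, 1% DMSO, 45 min at 30 °C, stopped with phosphoric acid.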
# human TYK2 = target: T3, human TYK2 (Homo sapiens, UniProt P29597); test: TYK2 inhibition assay; settings: recombinant human TYK2 catalytic domain, polyGT substrate
# T3 construct: catalytic domain (amino acids 871-1187; catalog number 08-147); purchased Carna Biosciences 08-147
# T3 sequence (P29597 871-1187): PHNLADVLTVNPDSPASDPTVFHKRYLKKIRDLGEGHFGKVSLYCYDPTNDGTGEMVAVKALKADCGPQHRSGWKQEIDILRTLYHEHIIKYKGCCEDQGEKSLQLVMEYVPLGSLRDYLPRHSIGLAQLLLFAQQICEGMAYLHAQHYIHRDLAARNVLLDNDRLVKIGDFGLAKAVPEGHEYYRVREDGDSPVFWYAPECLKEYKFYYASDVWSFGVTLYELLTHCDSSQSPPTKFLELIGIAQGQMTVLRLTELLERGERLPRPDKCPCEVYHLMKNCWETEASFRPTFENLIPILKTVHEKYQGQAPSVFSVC
# Procedure, shortened: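 Radiometric kinase reaction run 90 min at 30 °C, stopped with phosphoric acid, washed and scintillation-counted.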
# T1 sequence (P23458 866-1154): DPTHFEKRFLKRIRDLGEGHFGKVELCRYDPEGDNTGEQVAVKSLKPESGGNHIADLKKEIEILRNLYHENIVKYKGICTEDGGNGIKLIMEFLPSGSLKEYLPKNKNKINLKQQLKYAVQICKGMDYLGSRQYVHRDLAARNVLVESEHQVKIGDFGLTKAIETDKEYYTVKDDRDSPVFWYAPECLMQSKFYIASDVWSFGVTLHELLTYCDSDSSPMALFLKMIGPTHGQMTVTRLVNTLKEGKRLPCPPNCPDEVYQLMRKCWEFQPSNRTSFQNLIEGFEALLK
# T2 sequence (P52333 781-1124): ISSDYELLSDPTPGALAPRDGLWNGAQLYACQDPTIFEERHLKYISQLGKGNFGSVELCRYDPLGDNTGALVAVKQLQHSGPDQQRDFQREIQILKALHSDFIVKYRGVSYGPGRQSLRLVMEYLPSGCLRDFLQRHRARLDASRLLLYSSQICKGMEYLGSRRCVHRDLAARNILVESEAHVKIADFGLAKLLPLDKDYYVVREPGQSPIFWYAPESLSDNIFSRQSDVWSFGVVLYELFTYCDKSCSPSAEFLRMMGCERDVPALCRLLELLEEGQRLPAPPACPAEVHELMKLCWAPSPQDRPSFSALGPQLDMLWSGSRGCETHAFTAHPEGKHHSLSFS
Structure (SMILES),IC50 (human JAK1),IC50 (human JAK3),IC50 (human TYK2)
"Cc1cc(OCCCC#N)ccc1N(C)c1cc2c(cn1)ncn2C [Compound 48, 4-(3-methyl-4-(methyl(1-methyl-1H-imidazo[4,5-c]pyridin-6-yl)amino)phenoxy)butane nitrile]",0.01 to 100 nM,> 1000 nM,501 to 1000 nM
"CCc1cc(C2CN(C(=O)C(F)F)C2)ncc1N(C)c1cc2c(cn1)ncn2C [Compound 333, 1-(3-{4-Ethyl-5-[methyl-(1-methyl-1H-imidazo[4,5-c]pyridin-6-yl)-amino]-pyridin-2-yl}-azetidin-1-yl)-2,2-difluoro-ethanone]",0.01 to 100 nM,501 to 1000 nM,501 to 1000 nM
"COc1cc(N2CCOCC2)ncc1N(C)c1cc2c(cn1)ncn2C [Compound 313, (4-Methoxy-6-morpholin-4-yl-pyridin-3-yl)-methyl-(1-methyl-1H-imidazo[4,5-c]pyridine-6-yl)-amine]",0.01 to 100 nM,501 to 1000 nM,101 to 500 nM
CCc1cc(-c2ccc(CNC(=O)OC(C)(C)C)s2)ncc1N(C)c1cc2c(cn1)ncn2C [Compound 302],0.01 to 100 nM,> 1000 nM,101 to 500 nM
"CCc1ccccc1N(CC(F)F)c1cc2c(cn1)ncn2C [Compound 463, N-(2,2-difluoroethyl)-N-(2-ethylphenyl)-1-methyl-1H-imidazo[4,5-c]pyridin-6-amine]",0.01 to 100 nM,101 to 500 nM,0.01 to 100 nM
"Cc1ccc(OCc2ccc(Cl)cc2)cc1N(C)c1cc2c(cn1)ncn2C [Compound 62, N-(5-(4-chlorobenzyloxy)-2-methylphenyl)-N,1-dimethyl-1H-imidazo[4,5-c]pyridin-6-amine]",501 to 1000 nM,> 1000 nM,> 1000 nM
"CCc1ccccc1N(CC1CC1)c1cc2c(cn1)ncn2C [Compound 35, N-(cyclopropylmethyl)-N-(2-ethylphenyl)-1-methyl-1H-imidazo[4,5-c]pyridin-6-amine]",0.01 to 100 nM,501 to 1000 nM,101 to 500 nM
"CCc1cc(-c2ccc(C)s2)ncc1N(C)c1cc2c(cn1)ncn2C [Compound 311, [4-Ethyl-6-(5-methyl-thiophen-2-yl)-pyridin-3-yl]-methyl-(1-methyl-1H-imidazo[4,5-c]pyridin-6-yl)-amine]",0.01 to 100 nM,101 to 500 nM,0.01 to 100 nM
"Cc1cc(-c2cn[nH]c2)ccc1N(C)c1cc2c(cn1)ncn2C [Compound 71, N,1-Dimethyl-N-(2-methyl-4-(1H-pyrazol-4-yl)phenyl)-1H-imidazo[4,5-c]pyridin-6-amine]",0.01 to 100 nM,501 to 1000 nM,0.01 to 100 nM
"CCc1ccc(C(=O)NC(C)(C)C)cc1N(C)c1cc2c(cn1)ncn2C [Compound 123, N-tert-butyl-4-ethyl-3-(methyl(1-methyl-1H-imidazo[4,5-c]pyridin-6-yl)amino)benzamide]",0.01 to 100 nM,> 1000 nM,> 1000 nM
"Cc1cc(-c2cnn(C)c2)ccc1N(C)c1cc2c(cn1)ncn2C [Compound 73, N,1-dimethyl-N-(2-methyl-4-(1-methyl-1H-pyrazol-4-yl)phenyl)-1H-imidazo[4,5-c]pyridin-6-amine]",0.01 to 100 nM,> 1000 nM,101 to 500 nM
"CCc1cc(F)ccc1N(C)c1cc2c(cn1)ncn2C [Compound 28, N-(2-Ethyl-4-fluorophenyl)-N,1-dimethyl-1H-imidazo[4,5-c]pyridin-6-amine]",0.01 to 100 nM,> 1000 nM,101 to 500 nM
"CCc1cc(C(=O)NCCN(C)C)ccc1N(C)c1cc2c(cn1)ncn2C [Compound 119, N-(2-(dimethylamino)ethyl)-3-ethyl-4-(methyl(1-methyl-1H-imidazo[4,5-c]pyridin-6-yl)amino)benzamide]",0.01 to 100 nM,> 1000 nM,> 1000 nM
"Cc1cc(O)ccc1N(C)c1cc2c(cn1)ncn2C [Compound 38, 3-Methyl-4-(methyl(1-methyl-1H-imidazo[4,5-c]pyridin-6-yl)amino)phenol]",0.01 to 100 nM,501 to 1000 nM,101 to 500 nM
"CCc1cc(-c2ccc(CN)s2)ncc1N(C)c1cc2c(cn1)ncn2C [Compound 303, [6-(5-Aminomethyl-thiophen-2-yl)-4-ethyl-pyridin-3-yl]-methyl-(1-methyl-1H-imidazo[4,5-c]pyridin-6-yl)-amine]",501 to 1000 nM,> 1000 nM,> 1000 nM
CCc1cc(C(=O)NC)ccc1N(C)c1cc2c(cn1)ncn2C [Compound 85],0.01 to 100 nM,> 1000 nM,101 to 500 nM
"CCc1cc(CN(C)S(C)(=O)=O)c(F)cc1N(C)c1cc2c(cn1)ncn2C [Compound 319, N-{5-Ethyl-2-fluoro-4-[methyl-(1-methyl-1H-imidazo[4,5-c]pyridin-6-yl)-amino]-benzyl}-N-methyl-methanesulfonamide]",0.01 to 100 nM,0.01 to 100 nM,0.01 to 100 nM
"Cc1cc(CO)ccc1N(C)c1cc2c(cn1)ncn2C [Compound 29, (3-Methyl-4-(methyl(1-methyl-1H-imidazo[4,5-c]pyridin-6-yl)amino)phenyl) MeOH]",0.01 to 100 nM,> 1000 nM,501 to 1000 nM
"CCc1cc(CNS(C)(=O)=O)c(F)cc1N(C)c1cc2c(cn1)ncn2C [Compound 325, N-{5-Ethyl-2-fluoro-4-[methyl-(1-methyl-1H-imidazo[4,5-c]pyridin-6-yl)-amino]-benzyl}-methanesulfonamide]",0.01 to 100 nM,101 to 500 nM,101 to 500 nM
"COc1ccc(S(=O)(=O)N2CCCCC2)cc1N(C)c1cc2c(cn1)ncn2C [Compound 314, [2-Methoxy-5-(piperidine-1-sulfonyl)-phenyl]-methyl-(1-methyl-1H-imidazo[4,5-d]pyridin-6-yl)-amine]",> 1000 nM,> 1000 nM,> 1000 nM
"Cc1cc(-c2cncnc2)ccc1N(C)c1cc2c(cn1)ncn2C [Compound 72, N,1-dimethyl-N-(2-methyl-4-(pyrimidin-5-yl)phenyl)-1H-imidazo[4,5-c]pyridin-6-amine]",101 to 500 nM,> 1000 nM,501 to 1000 nM
"Cc1ccc(OCCCC#N)cc1N(C)c1cc2c(cn1)ncn2C [Compound 60, 4-(4-methyl-3-(methyl(1-methyl-1H-imidazo[4,5-c]pyridin-6-yl)amino)phenoxy)butane nitrile]",0.01 to 100 nM,101 to 500 nM,501 to 1000 nM
"Cc1c(OCC#N)cccc1N(C)c1cc2c(cn1)ncn2C [Compound 64, 2-(2-methyl-3-(methyl(1-methyl-1H-imidazo[4,5-c]pyridin-6-yl)amino)phenoxy)acetoni-trile]",0.01 to 100 nM,101 to 500 nM,101 to 500 nM
"CCc1cc(C(=O)OC)ccc1N(C)c1cc2c(cn1)ncn2C [Compound 80, Methyl 3-ethyl-4-(methyl(1-methyl-1H-imidazo[4,5-c]pyridin-6-yl)amino)benzoate]",0.01 to 100 nM,> 1000 nM,101 to 500 nM
"CCc1cc(-c2ccsc2)ccc1N(C)c1cc2c(cn1)ncn2C [Compound 127, N-(2-ethyl-4-(thiophen-3-yl)phenyl)-N,1-dimethyl-1H-imidazo[4,5-c]pyridin-6-amine]",0.01 to 100 nM,0.01 to 100 nM,0.01 to 100 nM
"CCc1cn(CCC#N)nc1N(C)c1cc2c(cn1)ncn2C [Compound 316, 3-{4-Ethyl-3-[methyl-(1-methyl-1H-imidazo[4,5-c]pyridin-6-yl)-amino]-pyrazol-1-yl}-propionitrile]",> 1000 nM,> 1000 nM,> 1000 nM
"Cc1ccc(OCC#N)cc1N(C)c1cc2c(cn1)ncn2C [Compound 57, 2-(4-methyl-3-(methyl(1-methyl-1H-imidazo[4,5-c]pyridin-6-yl)amino)phenoxy)acetoni-trile]",0.01 to 100 nM,101 to 500 nM,501 to 1000 nM
"CCc1cc(CNS(=O)(=O)C(F)F)c(F)cc1N(C)c1cc2c(cn1)ncn2C [Compound 327, N-{5-Ethyl-2-fluoro-4-[methyl-(1-methyl-M-imidazo[4,5-c]pyridin-6-yl)-amino]-benzyl}-C,C-difluoro-methanesulfonamide]",0.01 to 100 nM,0.01 to 100 nM,0.01 to 100 nM
"CCc1cc(C(C)(C)O)ccc1N(C)c1cc2c(cn1)ncn2C [Compound 103, 2-(3-Ethyl-4-(methyl(1-methyl-1H-imidazo[4,5-c]pyridin-6-yl)amino)phenyl)propan-2-ol]",0.01 to 100 nM,101 to 500 nM,0.01 to 100 nM
"CCc1cc(C(=O)NCCC#N)ccc1N(C)c1cc2c(cn1)ncn2C [Compound 86, N-(2-Cyanoethyl)-3-ethyl-4-(methyl(1-methyl-1H-imidazo[4,5-c]pyridin-6-yl)amino)benzamide]",0.01 to 100 nM,> 1000 nM,501 to 1000 nM

# — US20130217664A1, “NOVEL COMPOUNDS USEFUL FOR THE TREATMENT OF DEGENERATIVE AND INFLAMMATORY DISEASES” (priority 2012, published 2013)
